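Cultured in 96-well plates, cells were exposed to test compound for 48 hours across five concentrations. Abbreviation: GI50, concentration required for 50% inhibition of growth.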 Active and inactive are the calls of the source. No stated cut-off is given here; in the data, active = GI50 up to about 1.1 µM and inactive = higher. Where only a bound is given, the exact number is not on record here.

Here are results for six compounds from ChEMBL document CHEMBL1201862, “PubChem BioAssay data set” (2004).

Among the test systems are 786-0; A498; CAKI-1; CCRF-CEM; HCC 2998; KM-20L2; KM12; LXFL 529; MOLT-4; Malme-3M; NCI-H226; NCI-H522; OVCAR-5; SF-268; SF-295; SR; U-251; UACC-62; UO-31; MDA-MB-435.
Common to all, as to test: DTP human tumour cell line panel, 48 h

On to `Cc1cc(C)[n+](CCOc2ccc(/C(=C(/Cl)c3ccccc3)c3ccccc3)cc2)c(C)c1.[O-][Cl+3]([O-])([O-])[O-]`, for which the GI50 in the experiment with 786-0 is 2.45 µM (inactive); with A498 it was 3.87 µM (inactive); in the experiment on CAKI-1, 4.49 µM (inactive); in the experiment with CCRF-CEM, 0.521 µM (active); in the experiment with HCC 2998, 0.701 µM (active); in the experiment on KM-20L2 it was 0.847 µM (active). The GI50 in the experiment on KM12 is 0.697 µM (active); with LXFL 529 it was 0.506 µM (active); in the experiment with MOLT-4, 1.28 µM (inactive); in the experiment on Malme-3M, 1.4 µM (inactive); with NCI-H226, 1.32 µM (inactive); with NCI-H522, 0.39 µM (active). Besides, the GI50 in the experiment with OVCAR-5 is 2.69 µM (inactive); with SF-268, 0.933 µM (active); with SF-295 it was 2.47 µM (inactive); in the experiment with SR, 0.804 µM (active); in the experiment on U-251 it was 0.685 µM (active); in the experiment on UACC-62 it was 0.741 µM (active). In the experiment with UO-31, the GI50 is 14.8 µM (inactive).
In the case of `COC(=O)C(C(=O)C(N)=O)c1csc(-n2nc(-c3ccccc3)cc2-c2ccccc2)n1` (centres undefined), the GI50 in the experiment on 786-0 is > 31.6 µM (inactive); in the experiment with A498, > 31.6 µM (inactive); in the experiment on CAKI-1 it was 10.6 µM (inactive); in the experiment with CCRF-CEM, 25.1 µM (inactive); with HCC 2998, > 31.6 µM (inactive); with KM-20L2 it was 27.4 µM (inactive). For the same compound, the GI50 was 22.6 µM (inactive) with KM12; > 31.6 µM (inactive) in the experiment with LXFL 529; 25.5 µM (inactive) in the experiment with MOLT-4; > 31.6 µM (inactive) in the experiment on Malme-3M; 20.9 µM (inactive) in the experiment with NCI-H226; 27.6 µM (inactive) with NCI-H522. Also, the GI50 in the experiment with OVCAR-5 is > 100 µM (inactive); in the experiment with SF-268, > 31.6 µM (inactive); in the experiment with SF-295 it was > 87.9 µM (inactive); in the experiment on SR it was > 10 µM (inactive); in the experiment on U-251 it was 24.5 µM (inactive); in the experiment on UACC-62, > 31.6 µM (inactive). The GI50 in the experiment with UO-31 was 13.5 µM (inactive).
Turning to `CN(C)C[C@H]1CC[C@@H](CN(C)C)C1=O`, the GI50 was 5.68 µM (inactive) in the experiment on 786-0; 49.2 µM (inactive) in the experiment on A498; 8.79 µM (inactive) in the experiment on CAKI-1; > 29.6 µM (inactive) with HCC 2998; 11.2 µM (inactive) in the experiment with KM-20L2; 16.9 µM (inactive) with KM12. The GI50 in the experiment on LXFL 529 was 6.18 µM (inactive); in the experiment on MDA-MB-435, 9.66 µM (inactive); with MOLT-4, 1.23 µM (inactive); in the experiment on Malme-3M it was 3 µM (inactive); in the experiment on NCI-H226, 13.1 µM (inactive); in the experiment on NCI-H522 it was 0.453 µM (active). Moreover, the GI50 with OVCAR-5 was 8.79 µM (inactive); in the experiment with SF-268, 11.2 µM (inactive); in the experiment on SF-295 it was 48.9 µM (inactive); in the experiment with SR, 2.21 µM (inactive); with U-251, 28.7 µM (inactive); in the experiment with UACC-62, 9.08 µM (inactive). Besides, the GI50 in the experiment on UO-31 was 14.9 µM (inactive).
As for `COc1cc2c(oc(=O)c3cc4ccoc4c(OC)c32)c2cccc(O)c12`, the GI50 in the experiment on 786-0, with A498, in the experiment on CAKI-1, in the experiment on CCRF-CEM, with HCC 2998 and with KM-20L2 was > 100 µM (inactive) throughout. The GI50 in the experiment with KM12, with LXFL 529, with MOLT-4, in the experiment on Malme-3M, in the experiment on NCI-H226 and in the experiment on NCI-H522 was > 100 µM (inactive) in each case. In addition, the GI50 in the experiment with OVCAR-5, in the experiment on SF-268, in the experiment on SF-295, with SR, in the experiment on U-251 and in the experiment on UACC-62 was > 100 µM (inactive) in each case. Moreover, in the experiment with UO-31, the GI50 is > 100 µM (inactive).
As for `COc1ccccc1NC(=O)C1=C(C)NC(C)=C(C(=O)Nc2ccccc2OC)C1c1ccccc1OC`, the GI50 in the experiment on 786-0, in the experiment with A498, in the experiment with CAKI-1, in the experiment on CCRF-CEM, with HCC 2998 and with KM-20L2 was > 100 µM (inactive) each time. For the same compound, the GI50 with KM12 was > 100 µM (inactive); in the experiment on LXFL 529, > 100 µM (inactive); in the experiment with MOLT-4 it was 54.5 µM (inactive); in the experiment with Malme-3M, > 100 µM (inactive); with NCI-H226 it was > 100 µM (inactive); in the experiment with NCI-H522, > 100 µM (inactive). The GI50 is > 100 µM (inactive) in the experiment on OVCAR-5; > 100 µM (inactive) with SF-268; > 100 µM (inactive) with SF-295; 83.2 µM (inactive) in the experiment on SR; > 100 µM (inactive) with U-251; > 100 µM (inactive) in the experiment on UACC-62. In addition, the GI50 in the experiment with UO-31 was > 100 µM (inactive).
`CCC1CCc2c(c(=O)oc3c2cc(OC)c2cccc(OC)c23)C1` (centres undefined): the GI50 with 786-0 is > 100 µM (inactive); in the experiment with A498, > 100 µM (inactive); in the experiment on CAKI-1 it was > 100 µM (inactive); in the experiment with CCRF-CEM, 28.3 µM (inactive); with HCC 2998, 77.1 µM (inactive); in the experiment on KM-20L2 it was > 100 µM (inactive). The GI50 was 47.8 µM (inactive) with KM12; 44 µM (inactive) in the experiment with LXFL 529; 23.2 µM (inactive) in the experiment on MOLT-4; 56.9 µM (inactive) in the experiment with Malme-3M; > 100 µM (inactive) in the experiment with NCI-H226; 36.6 µM (inactive) in the experiment with NCI-H522. Besides, the GI50 in the experiment with OVCAR-5 was > 100 µM (inactive); in the experiment on SF-268, 90.2 µM (inactive); in the experiment with SF-295, 32.6 µM (inactive); with SR it was 38.1 µM (inactive); with U-251, 74.3 µM (inactive); with UACC-62, 48.5 µM (inactive). In addition, the GI50 in the experiment with UO-31 is > 100 µM (inactive).
